Patent publication US11590139B2, “Substituted aminopurine compounds, compositions thereof, and methods of treatment therewith” (Signal Pharmaceuticals, LLC, priority 2014, dated 2023)

Test system: Lox-IMVI melanoma cell line
Assay: Lox-IMVI anti-proliferative assay (growth inhibition, Cell Titer-Glo)
Format: cell-based, human
Conditions: Homo sapiens; IC50 activity level in the cell-based Lox-IMVI anti-proliferative assay; read-out: Activity
Outline: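 First, compound was dispensed as a 10-point 3-fold series (0.5 nM–10 μM, duplicate). Then cells in RPMI + 10% FBS were added and grown 72 h at 37 °C with 0.2% DMSO. Finally, ATP luminescence was read and IC50 calculated versus DMSO control.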

| IC50 | SMILES |
| --- | --- |
| > 1000 nM | CC1(C)CC[C@@H](Nc2ncc3nc(Nc4c(Cl)cc(Cl)cc4Cl)n([C@H]4CC[C@@H](C(N)=O)CC4)c3n2)C[C@H]1O [Example 387, (1S,4s)-4-(2-((1R,3R)-3-hydroxy-4,4-dimethylcyclohexylamino)-8-(2,4,6-tnchlorophenylarnino)-9H-purin-9-yl)cyclohexanecarboxamide] |
| 500 to 1000 nM | NC(=O)[C@H]1CC[C@@H](n2c(Nc3c(Cl)cc(Cl)cc3Cl)nc3cnc(N[C@@H]4CCOC[C@@H]4F)nc32)CC1 [Example 302, (1S,4s)-4-(2-((3R,4R)-3-fluorotetrahydro-2H-pyran-4-ylamino)-8-(2,4,6-trichlorophenylamino)-9H-purin-9-yl)cyclohexanecarboxamide] |
| > 1000 nM | NC(=O)[C@H]1CC[C@@H](n2c(Nc3c(Cl)cccc3Cl)nc3cnc(N[C@H]4CCC[C@@H]4O)nc32)CC1 [Example 268, (1R,4s)-4-(8-(2,6-dichlorophenylamino)-2-((1S,2S)-2-hydroxycyclopentylamino)-9H-purin-9-yl)cyclohexanecarboxamide] |
| 250 to 500 nM | NC(=O)[C@H]1CC[C@@H](n2c(Nc3c(F)ccc(Cl)c3Cl)nc3cnc(NC4CCOCC4)nc32)CC1 [Example 104, (1s,4s)-4-(8-(2,3-dichloro-6-fluorophenylamino)-2-(tetrahydro-2H-pyran-4-ylamino)-9H-purin-9-yl)cyclohexanecarboxamide] |
| > 1000 nM | NC(=O)[C@H]1CC[C@@H](n2c(Nc3c(F)ccc(Cl)c3F)nc3cnc(NC4CC(F)(F)C4)nc32)CC1 [Example 234, (1s,4s)-4-(8-(3-chloro-2,6-difluorophenylamino)-2-(3,3-difluorocyclobutylamino)-9H-purin-9-yl)cyclohexanecarboxamide] |
| 500 to 1000 nM | NC(=O)[C@H]1CC[C@@H](n2c(Nc3ccc(Cl)cc3F)nc3cnc(NC4CCOCC4)nc32)CC1 [Example 60, (1s,4s)-4-(8-(4-chloro-2-fluorophenylamino)-2-(tetrahydro-2H-pyran-4-ylamino)-9H-purin-9-yl)cyclohexanecarboxamide] |
| > 1000 nM | NC(=O)[C@H]1CC[C@@H](n2c(Nc3c(F)cc(Cl)cc3F)nc3cnc(N[C@@H]4CC[C@H](O)C4)nc32)CC1 [Example 328, (1S,4s)-4-(8-(4-chloro-2,6-difluorophenylamino)-2-((1R,3S)-3-hydroxycyclopentylamino)-9H-purin-9-yl)cyclohexanecarboxamide] |
| 250 to 500 nM | NC(=O)[C@H]1CC[C@@H](n2c(Nc3c(Cl)cc(Cl)cc3Cl)nc3cnc(N[C@@H]4CC[C@@H](O)C4)nc32)CC1 [Example 212, (1S,4s)-4-(2-((1R,3R)-3-hydroxycyclopentylamino)-8-(2,4,6-trichlorophenylamino)-9H-purin-9-yl)cyclohexanecarboxamide] |
| 500 to 1000 nM | N#Cc1ccc(Nc2nc3cnc(NC4CCOCC4)nc3n2[C@H]2CC[C@@H](C(N)=O)CC2)c(Cl)c1 [Example 248, (1s,4s)-4-(8-(2-chloro-4-cyanophenylamino)-2-(tetrahydro-2H-pyran-4-ylamino)-9H-purin-9-yl)cyclohexanecarboxamide] |
| > 1000 nM | C[C@@H](CO)Nc1ncc2nc(Nc3c(F)cc(C#N)cc3F)n([C@H]3CC[C@@H](C(N)=O)CC3)c2n1 [Example 394, (1R,4s)-4-(8-(4-cyano-2,6-difluorophenylamino)-2-((S)-1-hydroxypropan-2-ylamino)-9H-purin-9-yl)cyclohexanecarboxamide] |
| 500 to 1000 nM | Cc1ccc(Nc2nc3cnc(NC4CCOCC4)nc3n2[C@H]2CC[C@@H](C(N)=O)CC2)c(F)c1F [Example 83, (1s,4s)-4-(8-(2,3-difluoro-4-methylphenylamino)-2-(tetrahydro-2H-pyran-4-ylamino)-9H-purin-9-yl)cyclohexanecarboxamide] |
| > 1000 nM | C[C@@H]1CC[C@@H](Nc2ncc3nc(Nc4ccc(Cl)c(F)c4F)n([C@H]4CC[C@@H](C(N)=O)CC4)c3n2)C[C@H]1O [Example 357, (1S,4s)-4-(8-(4-chloro-2,3-difluorophenylamino)-2-((1R,3R,4R)-3-hydroxy-4-methylcyclohexylamino)-9H-purin-9-yl)cyclohexanecarboxamide] |
| 500 to 1000 nM | CC(C)Nc1ncc2nc(Nc3c(Cl)cc(F)cc3Cl)n([C@H]3CC[C@@H](C(N)=O)CC3)c2n1 [Example 123, (1s,4s)-4-(8-(2,6-dichloro-4-fluorophenylamino)-2-(isopropylamino)-9H-purin-9-yl)cyclohexanecarboxamide] |

Same assay, conditions: Homo sapiens; Lox-IMVI anti-proliferative assay, IC50 activity level; read-out: Activity

| IC50 | SMILES |
| --- | --- |
| > 1000 nM | NC(=O)[C@H]1CC[C@@H](n2c(Nc3c(F)cc(F)cc3Cl)nc3cnc(N[C@H]4CCC[C@H](O)C4)nc32)CC1 [Example 459, (1R,4s)-4-(8-(2-chloro-4,6-difluorophenylamino)-2-((1S,3S)-3-hydroxycyclohexylamino)-9H-purin-9-yl)cyclohexanecarboxamide] |
| > 1000 nM | NC(=O)[C@H]1CC[C@@H](n2c(Nc3c(F)cc(Cl)cc3Cl)nc3cnc(N[C@@H]4CCCC[C@H]4O)nc32)CC1 [Example 470, (1S,4s)-4-(8-(2,4-dichloro-6-fluorophenylamino)-2-((1R,2R)-2-hydroxycyclohexylamino)-9H-purin-9-yl)cyclohexanecarboxamide] |
| 250 to 500 nM | C[C@@H]1COCC[C@@H]1Nc1ncc2nc(Nc3c(Cl)cc(C#N)cc3Cl)n([C@H]3CC[C@@H](C(N)=O)CC3)c2n1 [Example 498, (1R,4s)-4-(8-(2,6-dichloro-4-cyanophenylamino)-2-((3S,4S)-3-methyltetrahydro-2H-pyran-4-ylamino)-9H-purin-9-yl)cyclohexanecarboxamide] |
| > 1000 nM | NC(=O)[C@H]1CC[C@@H](n2c(Nc3c(Cl)cc(Cl)cc3Cl)nc3cnc(N[C@@H]4CCCC[C@H](O)C4)nc32)CC1 [Example 439, (1S,4s)-4-(2-((1R,3S)-3-hydroxycycloheptylamino)-8-(2,4,6-trichlorophenylamino)-9H-purin-9-yl)cyclohexanecarboxamide] |
| > 1000 nM | CC[C@@H](CO)Nc1ncc2nc(Nc3c(F)cc(C#N)cc3Cl)n([C@H]3CC[C@@H](C(N)=O)CC3)c2n1 [Example 433, (1R,4s)-4-(8-(2-chloro-4-cyano-6-fluorophenylamino)-2-((S)-1-hydroxybutan-2-ylamino)-9H-purin-9-yl)cyclohexanecarboxamide] |
| > 1000 nM | NC(=O)[C@H]1CC[C@@H](n2c(Nc3c(F)cc(Cl)cc3F)nc3cnc(N[C@@H]4CCCC[C@H]4O)nc32)CC1 [Example 467, (1S,4s)-4-(8-(4-chloro-2,6-difluorophenylamino)-2-((1R,2R)-2-hydroxycyclohexylamino)-9H-purin-9-yl)cyclohexanecarboxamide] |

Same assay, conditions: Homo sapiens; Lox-IMVI melanoma cell line, anti-proliferative assay; read-out: Activity (IC50 activity level)

| IC50 | SMILES |
| --- | --- |
| < 250 nM | NC(=O)[C@H]1CC[C@@H](n2c(Nc3c(F)cc(F)cc3Cl)nc3cnc(N[C@H]4CCOC[C@H]4F)nc32)CC1 [Example 692, (1R,4s)-4-(8-(2-chloro-4,6-difluorophenylamino)-2-((3S,4S)-3-fluorotetrahydro-2H-pyran-4-ylamino)-9H-purin-9-yl)cyclohexanecarboxamide] |
| > 1000 nM | NC(=O)[C@H]1CC[C@@H](n2c(Nc3c(F)cc(Cl)cc3Cl)nc3cnc(NC4CCC(c5ncno5)CC4)nc32)CC1 (stereo partly shown) [Example 676, (1s,4s)-4-(2-(4-(1,2,4-oxadiazol-5-yl)cyclohexylamino)-8-(2,4-dichloro-6-fluorophenylamino)-9H-purin-9-yl)cyclohexanecarboxamide] |
| < 250 nM | C[C@]1(C(N)=O)CC[C@@H](n2c(Nc3c(F)cc(Cl)cc3F)nc3cnc(N[C@@H]4CC[C@@H](O)C4)nc32)CC1 [Example 639, (1S,4s)-4-(8-(4-chloro-2,6-difluorophenylamino)-2-((1R,3R)-3-hydroxycyclopentylamino)-9H-purin-9-yl)-1-methylcyclohexanecarboxamide] |
| < 250 nM | C[C@]1(C(N)=O)CC[C@@H](n2c(Nc3c(F)cc(C#N)cc3Cl)nc3cnc(N[C@H]4CCC[C@H](O)C4)nc32)CC1 [Example 615, (1R,4s)-4-(8-(2-chloro-4-cyano-6-fluorophenylamino)-2-((1S,3S)-3-hydroxycyclohexylamino)-9H-purin-9-yl)-1-methylcyclohexanecarboxamide] |
| > 1000 nM | C[C@]1(C(N)=O)CC[C@@H](n2c(Nc3c(Cl)cc(C(F)(F)F)cc3Cl)nc3cnc(NC4CCC4)nc32)CC1 [Example 602, (1s,4s)-4-(2-(cyclobutylamino)-8-(2,6-dichloro-4-(trifluoromethyl)phenylamino)-9H-purin-9-yl)-1-methylcyclohexanecarboxamide] |
| 500 to 1000 nM | C[C@]1(C(N)=O)CC[C@@H](n2c(Nc3c(Cl)cc(F)cc3Cl)nc3cnc(N[C@H]4CC[C@H](O)C4)nc32)CC1 [Example 647, (1R,4s)-4-(8-(2,6-dichloro-4-fluorophenylamino)-2-((1S,3S)-3-hydroxycyclopentylamino)-9H-purin-9-yl)-1-methylcyclohexanecarboxamide] |
| < 250 nM | C[C@]1(C(N)=O)CC[C@@H](n2c(Nc3c(Cl)cc(C#N)cc3Cl)nc3cnc(N[C@H]4CCOC[C@H]4F)nc32)CC1 [Example 761, (1R,4s)-4-(8-(2,6-dichloro-4-cyanophenylamino)-2-((3S,4S)-3-fluorotetrahydro-2H-pyran-4-ylamino)-9H-purin-9-yl)-1-methylcyclohexanecarboxamide] |
| > 1000 nM | CCN1CCC[C@@H](Nc2ncc3nc(Nc4c(F)cc(Cl)cc4Cl)n([C@H]4CC[C@@H](C(N)=O)CC4)c3n2)C1 [Example 734, (1S,4s)-4-(8-(2,4-dichloro-6-fluorophenylamino)-2-((R)-1-ethylpiperidin-3-ylamino)-9H-purin-9-yl)cyclohexanecarboxamide] |

| SMILES | IC50 |
| --- | --- |
| N#Cc1ccc(Nc2nc3cnc(NC4CCCC4)nc3n2[C@H]2CC[C@@H](C(N)=O)CC2)c(Cl)c1Cl [Example 693, (1s,4s)-4-(2-(cyclopentylamino)-8-(2,3-dichloro-4-cyanophenylamino)-9H-purin-9-yl)cyclohexanecarboxamide] | > 1000 nM |
